From patent US12382957B2, “Lactam compound or salt thereof, complex, and fertilizer and plant growth regulator containing said compound or salt and complex” (AICHI STEEL CORPORATION, priority 2020, dated 2025)

How the values were obtained:
[1] = test system: paddy rice variety "Nipponbare"; assay: Alkaline soil cultivation test; assay type: in vivo; conditions: fossil shellfish soil pH9; 30 μmol administered only once; SPAD 7 days after the administration; FIG. 4
Protocol: The paddy rice variety “Nipponbare” was seeded in tap water. When roots and buds emerged, seedlings were soaked in a hydroponic solution (formulation in the Horticultural Experiment Station). When the plant height reached about 7 cm, the seedlings were transplanted into fossil shellfish soil having a pH9. Aqueous solutions containing 30 μmol of each of Fe-PDMA, only PDMA, a complex composed of the lactam compound (L2) and iron sulfate (III) (hereinafter, referred to as “Fe(III)-lactam compound (L2)”), a complex composed of the lactam compound (L2) and iron sulfate (II) (hereinafter, referred to as “Fe(II)-lactam compound (L2)”), lactam compound (L2), disodium ethylenediamine tetraacetate, Fe-EDTA, Fe-EDDHA, iron sulfate (III) or iron sulfate (II). were administered only once to each of the soil to measure SPAD values 7 days after the administration. According to FIG. 4, SPAD values were 33.8 and 30.9, respectively when either the Fe-lactam compound (L2) of divalent and trivalent iron was used.

[2] = Stability of aqueous solution (1H-NMR in waters with different pH); assay type: physicochemical; conditions: aqueous solutions of pH 1 (hydrochloric acid), pH 7 (water), pH 9 (sodium hydrogen carbonate), FIG. 1
Protocol: In order to investigate the stability of the lactam compound (L2) in water having different pH, an aqueous solution having a pH of 1 using hydrochloric acid, an aqueous solution having a pH of 7 in which the lactam compound (L2) was dissolved in water, and an aqueous solution having a pH of 9 using sodium hydrogen carbonate were subjected to ^1H-NMR measurement.

stability of the lactam ring in water [2]: the lactam ring structure is maintained
Structure (SMILES): O=C(O)[C@@H]1CCCN1CC[C@@H](C(=O)O)N1CC[C@H](O)C1=O [lactam compound (L2)]
growth effect in alkaline soil [1]: the effect can be obtained
